Assays:
GH or IGF-1 excess = conditions: primary or secondary therapy; cited from earlier work
patients with acromegaly [1] = test: Signs and symptoms of acromegaly, overall health status, ring size; type: in vivo, human; conditions: after conversion from octreotide LAR
Protocol: Signs and symptoms of acromegaly and overall health status were assessed by use of questionnaire that patients completed. Disease signs and symptoms were scored using an […] (0=absent to 8=severe, incapacitating); overall health status was scored using a 10-point scale (0=worst possible to 10=best possible). Additionally, change in ring size of the fourth digit of the right hand (fifth digit if the fourth was too large) was measured using a jeweler's ring sizing system (plastic) over the course of the study.

pituitary tumor = tested on: pituitary tumor; set-up: species or system human; conditions: in vivo
Protocol: Magnetic resonance imaging of the pituitary was performed at baseline and at the end of the study. Pituitary tumor volumes were calculated from the images by a single evaluator. Ultrasound of the gallbladder was performed at baseline and week 32.

patients with acromegaly [2] = test: Glucose homeostasis in conversion study: HbA1c, fasting plasma glucose, insulin, OGTT; type: in vivo, human
Protocol: Glycolated hemoglobin (HbA1c), fasting plasma glucose, and insulin concentrations were used to monitor the effects of pegvisomant on glucose homeostasis. […] Patients also underwent oral glucose tolerance testing (OGTT) to determine the glucose area under the concentration-time curve (AUC) at week 4 before initiation of pegvisomant and at week 32. Plasma glucose levels were assessed at −15, 0, 30, 60, 90, 120, 150, and 180 minutes following an oral glucose load.
For the primary outcome measure, exact binomial 2-sided 95% confidence intervals were constructed. All other analyses were descriptive in nature. For continuous measurements, descriptive summaries and subsequent analyses included the number of patients for which data were available, mean, median, standard deviation, and minimum/maximum values. […] The descriptive summaries for categorical or discrete measurements included the number and percentage of patients in each category. Statistical significance defined as a P value of <0.05 was determined by: 1) McNemar's Chi-square test for liver function tests and the proportion of patients with IGF-I below upper limit of normal at during the study versus baseline, or 2) the signed rank test for all other comparisons. Secondary outcomes and safety were reported as descriptive summaries.

serum IGF-I = test: Serum IGF-I concentration (RIA) in open-label octreotide LAR to pegvisomant conversion study; type: in vivo, human
Protocol: This open-label study included patients 18 years of age or older with a previously established diagnosis of acromegaly. […] Treatment with a dopamine agonist was discontinued 4 weeks before the baseline visit. Treatment with pegvisomant 10 mg/day subcutaneous was started at week 4 and continued through week 32. […] A more rapid dose escalation was allowed in a few patients based on the effective dose in the previous study. Vital signs and adverse events were monitored at each study visit; clinical and laboratory assessments were conducted at screening and baseline visits and regularly at 4-week intervals during the study. Laboratory assessments included serum IGF-I and GH concentrations, liver chemistry tests (alanine aminotransferase [ALT], aspartate transaminase [AST], bilirubin, and alkaline phosphatase), and routine laboratory tests (hematology, serum chemistry, and urinalysis). Assaying of serum IGF-I and GH concentrations was performed by an independent laboratory (Endocrine Sciences, Inc., Calabasas Hills, Calif.). Following separation of serum IGF-I from binding proteins by acid-ethanol extraction, serum IGF-I concentrations were determined using the IGF-I Nichols Kit (Cat. […] Serum GH concentrations were measured using a standard double antibody RIA with 125I-labeled recombinant human GH (hGH) tracer and primary rabbit anti-hGH antisera. Bound radioactive antibody-bound hGH was detected using a gamma counter. Specific radioactive hGH binding for each dilution was determined by subtracting the respective nonspecific binding, and the net radioactive hGH binding was calculated as a percentage of the total radioactive hGH added to each tube. Dilutions having a specific binding >2% were designated positive. For the primary outcome measure, exact binomial 2-sided 95% confidence intervals were constructed. All other analyses were descriptive in nature. For continuous measurements, descriptive summaries and subsequent analyses included the number of patients for which data were available, mean, median, standard deviation, and minimum/maximum values. […] The descriptive summaries for categorical or discrete measurements included the number and percentage of patients in each category. […] Secondary outcomes and safety were reported as descriptive summaries.

patients with acromegaly [3] = test: Safety monitoring in conversion study: adverse events, liver function tests, blood pressure, pulse, weight; type: in vivo, human
Protocol: This open-label study included patients 18 years of age or older with a previously established diagnosis of acromegaly. […] Treatment with a dopamine agonist was discontinued 4 weeks before the baseline visit. Treatment with pegvisomant 10 mg/day subcutaneous was started at week 4 and continued through week 32. […] A more rapid dose escalation was allowed in a few patients based on the effective dose in the previous study. Vital signs and adverse events were monitored at each study visit; clinical and laboratory assessments were conducted at screening and baseline visits and regularly at 4-week intervals during the study. Laboratory assessments included serum IGF-I and GH concentrations, liver chemistry tests (alanine aminotransferase [ALT], aspartate transaminase [AST], bilirubin, and alkaline phosphatase), and routine laboratory tests (hematology, serum chemistry, and urinalysis). For the primary outcome measure, exact binomial 2-sided 95% confidence intervals were constructed. All other analyses were descriptive in nature. For continuous measurements, descriptive summaries and subsequent analyses included the number of patients for which data were available, mean, median, standard deviation, and minimum/maximum values. […] The descriptive summaries for categorical or discrete measurements included the number and percentage of patients in each category. […] Secondary outcomes and safety were reported as descriptive summaries.

[4] = patients with normal IGF-I at baseline (n=13)

C[C@@H](O)[C@@H]1NC(=O)[C@H](CCCCN)NC(=O)[C@@H](Cc2c[nH]c3ccccc23)NC(=O)[C@H](Cc2ccccc2)NC(=O)[C@@H](NC(=O)[C@H](N)Cc2ccccc2)CSSC[C@@H](C(=O)N[C@H](CO)[C@@H](C)O)NC1=O [Octreotide]
patients in whom GH or IGF-1 excess is controlled (GH or IGF-1 excess): 50-60%

pegvisomant
mean overall signs-and-symptoms scores, overall health status, measures of ring size (patients with acromegaly [1]): improved | pituitary volume, mean change (pituitary tumor): 0.06 cm3 | pituitary volume, median change (pituitary tumor): 0 cm3 | pituitary volume, range of change (pituitary tumor): −0.73 to 1.1 cm3 | change in median HbA1c (patients with acromegaly [2]; all patients, 32-week study): significant decrease | decrease in fasting plasma glucose (patients with acromegaly [2]; [4]): 1.7 mmol/L | decrease in median HbA1c (patients with acromegaly [2]; [4]): 0.2% | peak insulin concentration (patients with acromegaly [2]; week 12): 90 pmol/L | glucose AUC during 2-hour OGTT (patients with acromegaly [2]; week 32): 1280 mmol·min/L | insulin/glucose ratio (patients with acromegaly [2]; week 32): 13.6 | median fasting glucose (patients with acromegaly [2]; week 32): 4.7 mmol/L | median insulin concentration (patients with acromegaly [2]; week 32): 69 pmol/L | cumulative percentage of patients achieving at least one IGF-I concentration within normal age-related range (serum IGF-I; any time during the study): 85% | change in IGF-I concentrations (serum IGF-I; patients with baseline IGF-I above age-adjusted reference range): significantly reduced | change in IGF-I concentrations (serum IGF-I; patients with normal IGF-I levels at baseline): not significantly changed | serum IGF-I concentration (serum IGF-I; week 32, all patients): 292 ng/mL | patients with normalized IGF-I concentrations (serum IGF-I; week 32, 38 of 49 patients): 77.6% | clinically relevant changes in serum ALT, ASP or bilirubin in patients with normal liver function at baseline (patients with acromegaly [3]; in vivo): No patient | elevations in blood pressure or pulse (patients with acromegaly [3]; in vivo): No significant or clinically relevant elevations | mean diastolic blood pressure (patients with acromegaly [3]; in vivo): 76 mm Hg | mean systolic blood pressure (patients with acromegaly [3]; in vivo): 126 mm Hg | patients reporting at least 1 adverse event (patients with acromegaly [3]; in vivo): 26.4% | patients with abnormal liver function tests (≧3 times ULN) (patients with acromegaly [3]; in vivo): No patients had abnormal liver function tests | patients with treatment-related constipation (patients with acromegaly [3]; in vivo): 3.8% | patients with treatment-related injection-site reaction (patients with acromegaly [3]; in vivo): 3.8% | serious treatment-related adverse events (patients with acromegaly [3]; in vivo): No serious treatment-related adverse events | patients with anomalous spikes in ALT levels (patients with acromegaly [3]; week 20 to week 24): 5.7%

— patent US20050153899A1, “Therapeutical conversion” (priority 2003, published 2005)
